Legend:
[1] = test system: healthy human fibroblasts; assay: Reduction in C26:0 LPC in healthy human fibroblasts in vitro; type: cell-based; conditions: Healthy 2 Fibroblast, half maximal reduction in C26:0 LPC, each number a separate measurement
[2] = test system: wild-type male cynomolgus monkeys; assay: Reduction of blood C26:0 LPC in vivo in cynomolgus monkeys; design: species or system cynomolgus monkey; conditions: 30 mg/kg PO QD, after 7 days of dosing
Experimental: A LC-MS/MS method of analyzing Lysophosphatidylcholine (LPC) in whole blood (dried blood spot card, DBS) and brain tissue samples was developed for measuring the abundance of saturated C16, C18, C20, C22, C24 and C26 LPC in DBS and brain samples. Whole blood was collected with Whatman DMPK-C DBS card at an approximate volume of 20 μL at each time point. Brain tissue was collected at the end point of the study. Samples were prepared and LC-MS/MS analysis was performed as described below.
For DBS bioanalysis, the DBS card was punched at 3 mm in diameter using a semi-automated DBS card puncher. To each punched spot 200 μL of pure methanol was added. […]
The supernatant obtained from each sample was injected into a LC-MS/MS system (Agilent Technologies, Santa Clara, Calif. and Applied Biosystems, Framingham, Mass.) for analysis. […] LPCs were detected by an AB Sciex API-6500 triple quadrupole MS with electrospray ionization in the mode of multiple reaction monitoring. Ions of Q1 were monitored at m/z of 496.6, 524.6, 552.6, 580.6, 608.6 and 636.6 for LPC 16:0, LPC 18:0, LPC 20:0, LPC 22:0, LPC 24:0 and LPC 26:0, respectively. […] C16:0 LPC levels were expressed as a concentration. […]
The vehicle used was 2% TPGS and Compound 87 doses were prepared in 2% TPGS. […] DBS cards were stored at 4° C. until they could be analyzed for VLCFAs. DBS samples were prepared and analyzed using LC-MS/MS as described above.

[3] = Metabolic intrinsic clearance in dog hepatocytes; type: in vitro ADME; conditions: beagle, cryopreserved hepatocytes in suspension, pH 7.5, 0.5 million cells/mL, incubation for 4 hours
Experimental: The metabolic intrinsic clearance (CLint) of Compound 87 was determined in human, monkey, dog, rat, and mouse hepatocytes. Cryopreserved human hepatocytes (Lot Hue50c), monkey hepatocytes (cynomolgus; Lot Cy328), dog hepatocytes (beagle, Lot Db235), rat hepatocytes (Sprague Dawley; NNH), and mouse hepatocytes (CD-1; Lot Mc522) were obtained from ThermoFisher (Paisley, UK). In separate experiments, compound 87 (1 μM) was incubated with hepatocytes from each species (0.5 million cells/mL, suspension) in Dulbecco's Modified Eagle's Medium (DMEM) supplemented with 4-(2-Hydroxyethyl)piperazine-1-ethanesulfonic acid (HEPES, 9 mM) and fructose (2.2 mM) (pH 7.5). Samples were quenched with acetonitrile and analyzed by LC-MS/MS. The mean CLint for Compound 87 in human, monkey, dog, rat, and mouse hepatocytes after incubation for 4 hours was determined to be ≤2.5, ≤2.5, 7.2, 23.6 and 10.7 μL/min/million cells. Based on these date, Compound 87 was low to moderately metabolized in hepatocytes in mouse, rat, dog, monkey, and human, and the rank order of stability at […] was approximately human>monkey>dog>mouse>rat. […] The metabolic stability of Compound 87 was not expected.

With `O=C(Nc1ccn(-c2ccnc(F)c2)n1)C1(c2ccccc2F)CC1` [Compound 87, 1-(2-fluorophenyl)-N-[1-(2-fluoro-4-pyridyl)pyrazol-3-yl]cyclopropanecarboxamide] the IC50 [1] was 6 nM, the IC50 ([1]; Homo sapiens, Fibroblast) was 9 nM and the “reduction in blood C26:0 LPC” value [2] was ~50%. For the same molecule, the hepatocyte CLint at 1 μM [3] was 7.2 µL/min/1e6 cells.
